Source: ChEMBL document CHEMBL5034001 (J Med Chem, 2021)
pIC50: −log10 of the molar value. Activity calls are given as the source filed them. The calls are words filed in the database; no cut-off is given here.

Assays:
[1] = tested on: Receptor-type tyrosine-protein kinase FLT3 (Homo sapiens), P36888 [D835Y]; assay: Binding affinity to human partial length FLT3 D835Y mutant (Q580 to Y969 residues) expressed in bacterial expression system assessed as residual binding level at 100 nM by Kinomescan method relative to control
[2] = Metabolic stability in human liver microsomes assessed as half life preincubated for 10 mins followed by NADPH regenerating system addition and measured after 10 mins by LC-MS/MS analysis; format: ADME, Microsome
[3] = target: NPM/ALK (Nucleophosmin/ALK tyrosine kinase receptor) (Homo sapiens) (UniProt Q9UM73+P06748); assay: Induction of NPM-ALK degradation in human SR cells at 0.1 to 50 nM by Western blot analysis; format: cell-based; details: dose 0.1-50 nM
[4] = tested on: Leucine-rich repeat serine/threonine-protein kinase 2 (Homo sapiens), Q5S007 [G2019S]; assay: Binding affinity to human partial length LRRK2 G2019S mutant (H970 to E2527 residues) expressed in mammalian expression system assessed as residual binding level at 100 nM by Kinomescan method relative to control
[5] = tested on: Epidermal growth factor receptor (Homo sapiens), P00533 [UNDEFINED MUTATION]; assay: Binding affinity to human partial length EGFR L747-E749del/A750P mutant expressed in bacterial expression system assessed as residual binding level at 100 nM by Kinomescan method relative to control
[6] = tested on: Receptor-type tyrosine-protein kinase FLT3 (Homo sapiens), P36888 [N841I]; assay: Binding affinity to human partial length FLT3 N841I mutant (V592 to Y969 residues) expressed in bacterial expression system assessed as residual binding level at 100 nM by Kinomescan method relative to control
[7] = target: Signal transducer and activator of transcription 3 (Homo sapiens) (UniProt P40763); assay: Inhibition of STAT3 downstream signalling in human SR cells assessed as reduction in pSTAT3 level at 10 nM by Western blot analysis; format: cell-based
[8] = target: Non-receptor tyrosine-protein kinase TNK1 (Homo sapiens) (UniProt Q13470); assay: Binding affinity to wild-type human full length TNK1 (M1 to P661 residues) expressed in bacterial expression system assessed as residual binding level at 100 nM by Kinomescan method relative to control
Calu-1 [9] = assay: Inhibition of cell invasion in human Calu-1-GFP cells at 100 nM after 24 hrs by transwell invasion assay; format: functional, cell-based
[10] = Metabolic stability in Sprague-Dawley rat liver microsomes preincubated for 10 mins followed by NADPH regenerating system addition and measured after 10 mins by LC-MS/MS analysis; format: ADME, Microsome; details: time 20 min, read-out: Stability
Calu-1 [11] = assay: Induction of G1 cell cycle arrest in human Calu-1 cells at 100 nM after 24 to 48 hrs; format: functional, cell-based; details: time 24-48 hrs
[12] = Metabolic stability in human liver microsomes assessed as intrinsic clearance preincubated for 10 mins followed by NADPH regenerating system addition and measured after 10 mins by LC-MS/MS analysis; format: ADME, Microsome; details: time 20 min, read-out: CLH
[13] = target: T1, ALK tyrosine kinase receptor (Homo sapiens, UniProt Q9UM73); assay: Induction of ALK degradation in human SR cells at 100 nM incubated with compound for 24 hrs followed by compound washout and measured upto 72 hrs by Western blot analysis; format: cell-based
[14] = tested on: Receptor-type tyrosine-protein kinase FLT3 (Homo sapiens), P36888 [D835V]; assay: Binding affinity to human partial length FLT3 D835V mutant (V592 to Y969 residues) expressed in bacterial expression system assessed as residual binding level at 100 nM by Kinomescan method relative to control
A549 = assay: Down regulation of RSK1 in human A549 cells at 1 to 1000 nM after 16 hrs by Western blot analysis; format: functional, cell-based; details: dose 1-1000 nM
[15] = target: Ribosomal protein S6 kinase alpha-3 (Homo sapiens) (UniProt P51812); assay: Binding affinity to wild-type human partial length N- terminal RSK2 kinase domain 1 (M1 to D394 residues) expressed in mammalian expression system assessed as residual binding level at 100 nM by Kinomescan method relative to control
[16] = target: Serine/threonine-protein kinase RIO1 (Homo sapiens) (UniProt Q9BRS2); assay: Binding affinity to wild-type human full length RIOK1 (M1 to K568 residues) expressed in bacterial expression system assessed as residual binding level at 100 nM by Kinomescan method relative to control
[17] = target: Signal transducer and activator of transcription 3 (Homo sapiens) (UniProt P40763); assay: Inhibition of STAT3 downstream signalling in human NCI-H2228 cells assessed as reduction in pSTAT3 level at 1 to 1000 nM by Western blot analysis; format: cell-based; details: dose 1-1000 nM
[18] = target: Activated CDC42 kinase 1 (Homo sapiens) (UniProt Q07912); assay: Binding affinity to wild-type human partial length TNK2 (S159 to D474 residues) expressed in bacterial expression system assessed as residual binding level at 100 nM by Kinomescan method relative to control
[19] = target: T1, ALK tyrosine kinase receptor; assay: Binding affinity to wild-type human partial length ALK (I1088 to E1409 residues) expressed in mammalian expression system assessed as residual binding level at 100 nM by Kinomescan method relative to control
MDA-MB-231 = assay: Induction of apoptosis in human MDA-MB-231 cells at 100 nM after 72 hrs; format: functional, cell-based
[20] = target: Serine/threonine-protein kinase 33 (Homo sapiens) (UniProt Q9BYT3); assay: Binding affinity to wild-type human full length STK33 (M1 to L514 residues) expressed in bacterial expression system assessed as residual binding level at 100 nM by Kinomescan method relative to control
[21] = target: Focal adhesion kinase 1 (Homo sapiens) (UniProt Q05397); assay: Induction of FAK degradation in human MDA-MB-231 cells at 10 nM after 1 to 2 hrs by Western blot analysis; format: cell-based; details: time 1-2 hrs
[22] = target: ALK tyrosine kinase receptor (Homo sapiens, UniProt Q9UM73, G1202R); assay: Binding affinity to ALK G1202R mutant (unknown origin)
SR = assay: Antiproliferative activity against human SR cells assessed as inhibition of cell growth at 10 nM preincubated for 5 days followed by compound washout and measured on day 7 and 9 by CCK8 assay; format: functional, cell-based; details: time 5.0 day
[23] = target: Focal adhesion kinase 1 (Homo sapiens) (UniProt Q05397); assay: Binding affinity to wild-type human partial length FAK (D402 to R696 residues) expressed in bacterial expression system assessed as residual binding level at 100 nM by Kinomescan method relative to control
[24] = target: Focal adhesion kinase 1 (Homo sapiens) (UniProt Q05397); assay: Induction of FAK degradation in human MDA-MB-231 cells at 10 nM treated for 16 hrs followed by compound washout and measured after 48 hrs by Western blot analysis; format: cell-based
[25] = Metabolic stability in human liver microsomes preincubated for 10 mins followed by NADPH regenerating system addition and measured after 10 mins by LC-MS/MS analysis; format: ADME, Microsome; details: time 20 min, read-out: Stability
[26] = target: Focal adhesion kinase 1 (Homo sapiens) (UniProt Q05397); assay: Induction of FAK degradation in human Calu-1 cells at 1 nM after 16 hrs by Western blot analysis; format: cell-based
[27] = target: Serine/threonine-protein kinase PLK4 (Homo sapiens) (UniProt O00444); assay: Binding affinity to wild-type human partial length PLK4 (M1 to S273 residues) expressed in mammalian expression system assessed as residual binding level at 100 nM by Kinomescan method relative to control

Sequence of Focal adhesion kinase 1 (Homo sapiens) (Q05397 2-1052 limits assumed): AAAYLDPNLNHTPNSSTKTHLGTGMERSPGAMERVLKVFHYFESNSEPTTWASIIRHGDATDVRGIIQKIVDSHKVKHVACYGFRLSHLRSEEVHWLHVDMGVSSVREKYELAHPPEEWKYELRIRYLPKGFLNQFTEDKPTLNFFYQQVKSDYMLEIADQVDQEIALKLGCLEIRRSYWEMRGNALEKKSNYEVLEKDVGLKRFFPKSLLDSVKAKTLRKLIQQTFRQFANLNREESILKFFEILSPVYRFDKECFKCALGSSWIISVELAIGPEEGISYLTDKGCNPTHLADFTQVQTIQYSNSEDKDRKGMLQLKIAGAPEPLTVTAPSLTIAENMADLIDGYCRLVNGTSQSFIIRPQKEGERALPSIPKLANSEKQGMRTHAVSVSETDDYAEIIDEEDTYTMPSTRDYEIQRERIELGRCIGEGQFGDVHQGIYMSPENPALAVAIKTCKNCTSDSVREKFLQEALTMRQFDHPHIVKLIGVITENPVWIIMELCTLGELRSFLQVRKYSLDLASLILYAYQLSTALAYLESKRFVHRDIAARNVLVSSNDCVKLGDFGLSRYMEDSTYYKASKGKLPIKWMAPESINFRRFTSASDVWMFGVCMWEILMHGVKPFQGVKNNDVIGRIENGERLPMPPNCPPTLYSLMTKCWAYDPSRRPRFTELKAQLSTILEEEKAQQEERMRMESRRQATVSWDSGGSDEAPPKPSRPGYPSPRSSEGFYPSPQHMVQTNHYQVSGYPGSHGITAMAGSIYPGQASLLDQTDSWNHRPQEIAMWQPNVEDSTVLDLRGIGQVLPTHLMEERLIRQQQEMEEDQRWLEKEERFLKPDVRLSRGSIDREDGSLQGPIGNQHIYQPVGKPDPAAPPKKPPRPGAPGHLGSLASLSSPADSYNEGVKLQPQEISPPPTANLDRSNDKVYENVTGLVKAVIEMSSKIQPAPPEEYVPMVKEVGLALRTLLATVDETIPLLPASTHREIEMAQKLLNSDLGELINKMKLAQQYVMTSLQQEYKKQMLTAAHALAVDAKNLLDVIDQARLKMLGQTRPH
Sequence of Signal transducer and activator of transcription 3 (Homo sapiens) (P40763 whole entry, the tested form may be a part): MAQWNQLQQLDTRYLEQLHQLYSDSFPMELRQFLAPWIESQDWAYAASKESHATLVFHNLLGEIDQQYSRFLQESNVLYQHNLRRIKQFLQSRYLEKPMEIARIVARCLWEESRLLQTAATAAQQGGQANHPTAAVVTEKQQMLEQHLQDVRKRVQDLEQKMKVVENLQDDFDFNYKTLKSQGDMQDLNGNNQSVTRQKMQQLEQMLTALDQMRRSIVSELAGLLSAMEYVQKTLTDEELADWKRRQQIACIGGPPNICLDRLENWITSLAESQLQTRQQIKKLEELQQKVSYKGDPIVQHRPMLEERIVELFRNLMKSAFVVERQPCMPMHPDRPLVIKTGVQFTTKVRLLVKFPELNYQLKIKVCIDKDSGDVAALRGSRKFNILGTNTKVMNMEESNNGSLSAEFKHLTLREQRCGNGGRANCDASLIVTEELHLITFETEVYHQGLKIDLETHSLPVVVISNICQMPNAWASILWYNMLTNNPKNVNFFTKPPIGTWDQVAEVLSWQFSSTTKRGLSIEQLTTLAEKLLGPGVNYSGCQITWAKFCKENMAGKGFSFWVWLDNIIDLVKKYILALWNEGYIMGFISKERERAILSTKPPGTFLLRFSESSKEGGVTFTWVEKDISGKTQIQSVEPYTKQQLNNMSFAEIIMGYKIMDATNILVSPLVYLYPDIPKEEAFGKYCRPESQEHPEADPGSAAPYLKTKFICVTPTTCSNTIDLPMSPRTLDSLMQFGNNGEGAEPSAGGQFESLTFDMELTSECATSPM
T1 sequence (Q9UM73 19-1620 limits assumed): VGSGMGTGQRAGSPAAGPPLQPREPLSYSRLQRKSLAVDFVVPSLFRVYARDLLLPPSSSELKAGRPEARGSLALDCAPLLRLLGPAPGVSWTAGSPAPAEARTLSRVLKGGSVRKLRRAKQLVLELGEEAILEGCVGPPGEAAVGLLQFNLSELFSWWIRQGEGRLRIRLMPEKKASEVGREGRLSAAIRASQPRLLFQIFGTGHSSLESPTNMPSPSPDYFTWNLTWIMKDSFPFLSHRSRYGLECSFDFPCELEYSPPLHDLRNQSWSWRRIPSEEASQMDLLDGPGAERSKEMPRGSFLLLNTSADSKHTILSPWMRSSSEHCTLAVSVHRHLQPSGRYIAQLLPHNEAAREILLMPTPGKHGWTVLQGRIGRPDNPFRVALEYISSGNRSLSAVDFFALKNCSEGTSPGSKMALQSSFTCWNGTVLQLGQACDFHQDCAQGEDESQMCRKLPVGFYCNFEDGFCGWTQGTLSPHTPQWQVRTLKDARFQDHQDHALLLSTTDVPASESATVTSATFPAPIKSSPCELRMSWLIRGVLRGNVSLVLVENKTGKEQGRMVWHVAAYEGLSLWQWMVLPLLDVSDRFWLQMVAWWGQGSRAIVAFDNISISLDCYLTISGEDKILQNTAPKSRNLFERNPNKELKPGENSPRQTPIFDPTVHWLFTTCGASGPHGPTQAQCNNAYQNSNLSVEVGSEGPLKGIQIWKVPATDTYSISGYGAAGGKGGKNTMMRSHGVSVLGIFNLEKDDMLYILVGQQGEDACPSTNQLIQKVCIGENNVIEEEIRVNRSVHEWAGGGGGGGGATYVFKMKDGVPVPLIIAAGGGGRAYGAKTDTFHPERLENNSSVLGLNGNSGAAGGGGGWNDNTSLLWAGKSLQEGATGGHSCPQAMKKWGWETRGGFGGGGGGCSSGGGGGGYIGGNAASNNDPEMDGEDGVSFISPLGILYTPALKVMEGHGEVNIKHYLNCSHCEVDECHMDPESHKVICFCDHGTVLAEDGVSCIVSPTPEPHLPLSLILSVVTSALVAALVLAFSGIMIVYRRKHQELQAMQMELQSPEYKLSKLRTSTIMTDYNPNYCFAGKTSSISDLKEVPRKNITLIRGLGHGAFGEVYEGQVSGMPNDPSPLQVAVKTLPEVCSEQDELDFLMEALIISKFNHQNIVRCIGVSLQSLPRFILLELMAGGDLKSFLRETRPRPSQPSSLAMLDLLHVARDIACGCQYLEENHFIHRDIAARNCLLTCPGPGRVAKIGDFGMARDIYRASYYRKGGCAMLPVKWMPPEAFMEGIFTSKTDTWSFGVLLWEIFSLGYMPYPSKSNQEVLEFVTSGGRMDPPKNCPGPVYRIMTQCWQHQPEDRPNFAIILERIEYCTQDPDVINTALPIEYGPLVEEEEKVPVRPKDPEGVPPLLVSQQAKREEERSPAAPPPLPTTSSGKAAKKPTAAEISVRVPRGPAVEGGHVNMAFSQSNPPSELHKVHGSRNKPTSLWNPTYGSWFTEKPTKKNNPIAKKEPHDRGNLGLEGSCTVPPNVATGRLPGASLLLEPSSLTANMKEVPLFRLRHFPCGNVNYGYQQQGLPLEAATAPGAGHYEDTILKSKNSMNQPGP
Sequence of Epidermal growth factor receptor (Homo sapiens), P00533 [UNDEFINED MUTATION] (P00533 whole entry, looked up, stated change not applied, the tested form may be a part): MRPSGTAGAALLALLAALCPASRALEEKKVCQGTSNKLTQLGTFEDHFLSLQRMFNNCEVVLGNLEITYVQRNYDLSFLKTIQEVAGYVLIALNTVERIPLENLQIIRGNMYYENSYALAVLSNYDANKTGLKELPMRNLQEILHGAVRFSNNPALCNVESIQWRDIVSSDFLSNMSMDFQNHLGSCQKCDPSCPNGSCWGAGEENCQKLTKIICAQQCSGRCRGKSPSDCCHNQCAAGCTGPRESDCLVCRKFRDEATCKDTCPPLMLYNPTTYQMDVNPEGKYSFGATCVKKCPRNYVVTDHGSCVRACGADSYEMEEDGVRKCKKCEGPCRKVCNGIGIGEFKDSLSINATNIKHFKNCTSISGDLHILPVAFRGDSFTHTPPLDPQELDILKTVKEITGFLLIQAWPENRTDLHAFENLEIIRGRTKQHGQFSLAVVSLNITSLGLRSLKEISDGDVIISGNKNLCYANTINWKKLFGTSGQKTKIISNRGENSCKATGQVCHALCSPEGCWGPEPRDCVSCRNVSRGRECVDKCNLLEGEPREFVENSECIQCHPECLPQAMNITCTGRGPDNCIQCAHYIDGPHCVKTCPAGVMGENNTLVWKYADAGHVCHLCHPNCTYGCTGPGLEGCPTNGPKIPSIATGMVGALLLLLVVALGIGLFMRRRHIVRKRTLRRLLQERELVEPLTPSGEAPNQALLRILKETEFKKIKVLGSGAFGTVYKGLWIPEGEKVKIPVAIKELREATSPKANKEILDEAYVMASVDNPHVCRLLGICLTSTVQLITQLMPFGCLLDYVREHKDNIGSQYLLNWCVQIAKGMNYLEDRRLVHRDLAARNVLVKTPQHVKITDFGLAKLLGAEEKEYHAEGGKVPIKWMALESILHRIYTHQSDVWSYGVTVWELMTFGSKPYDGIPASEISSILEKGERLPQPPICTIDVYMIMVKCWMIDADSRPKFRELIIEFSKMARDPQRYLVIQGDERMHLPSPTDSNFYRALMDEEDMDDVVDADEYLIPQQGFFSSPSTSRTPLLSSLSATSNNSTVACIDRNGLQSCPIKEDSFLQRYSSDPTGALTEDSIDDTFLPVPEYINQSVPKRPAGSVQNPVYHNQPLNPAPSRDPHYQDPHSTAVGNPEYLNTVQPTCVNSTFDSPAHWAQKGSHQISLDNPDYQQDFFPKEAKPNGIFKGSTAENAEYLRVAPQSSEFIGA
Sequence of ALK tyrosine kinase receptor (Homo sapiens, UniProt Q9UM73, G1202R) (Q9UM73 19-1620 G1202R limits assumed): as the sequence (Q9UM73 19-1620 limits assumed) above, with G1184R counted along it
Sequence of NPM/ALK (Nucleophosmin/ALK tyrosine kinase receptor) (Homo sapiens) (P06748 whole entry partner, the tested form may be a part): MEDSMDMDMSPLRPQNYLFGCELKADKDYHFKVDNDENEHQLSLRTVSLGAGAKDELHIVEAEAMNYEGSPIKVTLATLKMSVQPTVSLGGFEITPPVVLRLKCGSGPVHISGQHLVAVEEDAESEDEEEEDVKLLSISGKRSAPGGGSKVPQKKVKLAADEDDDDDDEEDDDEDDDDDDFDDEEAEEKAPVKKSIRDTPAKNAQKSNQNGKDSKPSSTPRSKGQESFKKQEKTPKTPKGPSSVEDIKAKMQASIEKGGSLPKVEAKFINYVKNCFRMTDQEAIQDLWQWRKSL
Sequence of NPM/ALK (Nucleophosmin/ALK tyrosine kinase receptor) (Homo sapiens) (Q9UM73 19-1620 limits assumed): as the sequence (Q9UM73 19-1620 limits assumed) above

## COc1cc(N2CCC(N3CCN(C(=O)CNc4cccc5c4C(=O)N(C4CCC(=O)NC4=O)C5=O)CC3)CC2)ccc1Nc1ncc(Cl)c(Nc2ccccc2P(C)(C)=O)n1 (stereo not given)
[1]
  Activity: 8.2%
[2]
  half-life: 4.65 h
[3]
  Activity: Active
[4]
  Activity: 0%
[5]
  Activity: 6.9%
[6]
  Activity: 4%
[7]
  inhibition: Active
[8]
  Activity: 3.8%
Calu-1 [9]
  inhibition: Active
[10]
  microsomal CLint: < 9.6 µL/min/mg
Calu-1 [11]
  Activity: Active
[12]
  CLint scaled: 22.6 mL/min/kg
[13]
  Activity: Active
[14]
  Activity: 0%
A549
  Activity: Active
[15]
  Activity: 2.1%
[16]
  Activity: 1.6%
[17]
  inhibition: inactive
[18]
  Activity: 2%
[19]
  Activity: 5.3%
MDA-MB-231
  Activity: inactive
[20]
  Activity: 2.3%
[21]
  Activity: Active
[22]
  pIC50: 8.18
SR
  Activity: Active
[23]
  Activity: 2.5%
[24]
  Activity: inactive
[25]
  microsomal CLint: < 9.6 µL/min/mg
[26]
  Activity: Active
[27]
  Activity: 8.3%
